Tests used:
[1] = biological target: T1, SMARCA4-HiBiT HeLa cells (protein which is expressed from the SMARCA4 gene) (Homo sapiens, UniProt P51532); test: SMARCA4 degradation assay (HiBiT-fusion HeLa cell line, 24 h, luminescence); format: cell-based
T1 construct: protein which is expressed from the SMARCA2 and SMARCA4 genes; host or cells: HeLa (SMARCA4-HiBiT engineered line)
How it was run: (§1)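 In this 24-hour cellular degradation readout, HiBiT-tagged HeLa lines received compound at up to typically 10 μM down to 300 pM in 10 points. After lysis with LgBiT and substrate, luminescence signals were used to build dose-response curves for DC50.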

[2] = biological target: T2, SMARCA2-HiBiT HeLa cells (protein which is expressed from the SMARCA2 gene) (Homo sapiens, UniProt P51531); test: SMARCA2 degradation assay (HiBiT-fusion HeLa cell line, 24 h, luminescence); format: cell-based
T2 construct: protein which is expressed from the SMARCA2 and SMARCA4 genes; host or cells: HeLa (SMARCA2-HiBiT engineered line)
How it was run: as §1

T1 sequence (P51532 whole entry, the tested form may be a part): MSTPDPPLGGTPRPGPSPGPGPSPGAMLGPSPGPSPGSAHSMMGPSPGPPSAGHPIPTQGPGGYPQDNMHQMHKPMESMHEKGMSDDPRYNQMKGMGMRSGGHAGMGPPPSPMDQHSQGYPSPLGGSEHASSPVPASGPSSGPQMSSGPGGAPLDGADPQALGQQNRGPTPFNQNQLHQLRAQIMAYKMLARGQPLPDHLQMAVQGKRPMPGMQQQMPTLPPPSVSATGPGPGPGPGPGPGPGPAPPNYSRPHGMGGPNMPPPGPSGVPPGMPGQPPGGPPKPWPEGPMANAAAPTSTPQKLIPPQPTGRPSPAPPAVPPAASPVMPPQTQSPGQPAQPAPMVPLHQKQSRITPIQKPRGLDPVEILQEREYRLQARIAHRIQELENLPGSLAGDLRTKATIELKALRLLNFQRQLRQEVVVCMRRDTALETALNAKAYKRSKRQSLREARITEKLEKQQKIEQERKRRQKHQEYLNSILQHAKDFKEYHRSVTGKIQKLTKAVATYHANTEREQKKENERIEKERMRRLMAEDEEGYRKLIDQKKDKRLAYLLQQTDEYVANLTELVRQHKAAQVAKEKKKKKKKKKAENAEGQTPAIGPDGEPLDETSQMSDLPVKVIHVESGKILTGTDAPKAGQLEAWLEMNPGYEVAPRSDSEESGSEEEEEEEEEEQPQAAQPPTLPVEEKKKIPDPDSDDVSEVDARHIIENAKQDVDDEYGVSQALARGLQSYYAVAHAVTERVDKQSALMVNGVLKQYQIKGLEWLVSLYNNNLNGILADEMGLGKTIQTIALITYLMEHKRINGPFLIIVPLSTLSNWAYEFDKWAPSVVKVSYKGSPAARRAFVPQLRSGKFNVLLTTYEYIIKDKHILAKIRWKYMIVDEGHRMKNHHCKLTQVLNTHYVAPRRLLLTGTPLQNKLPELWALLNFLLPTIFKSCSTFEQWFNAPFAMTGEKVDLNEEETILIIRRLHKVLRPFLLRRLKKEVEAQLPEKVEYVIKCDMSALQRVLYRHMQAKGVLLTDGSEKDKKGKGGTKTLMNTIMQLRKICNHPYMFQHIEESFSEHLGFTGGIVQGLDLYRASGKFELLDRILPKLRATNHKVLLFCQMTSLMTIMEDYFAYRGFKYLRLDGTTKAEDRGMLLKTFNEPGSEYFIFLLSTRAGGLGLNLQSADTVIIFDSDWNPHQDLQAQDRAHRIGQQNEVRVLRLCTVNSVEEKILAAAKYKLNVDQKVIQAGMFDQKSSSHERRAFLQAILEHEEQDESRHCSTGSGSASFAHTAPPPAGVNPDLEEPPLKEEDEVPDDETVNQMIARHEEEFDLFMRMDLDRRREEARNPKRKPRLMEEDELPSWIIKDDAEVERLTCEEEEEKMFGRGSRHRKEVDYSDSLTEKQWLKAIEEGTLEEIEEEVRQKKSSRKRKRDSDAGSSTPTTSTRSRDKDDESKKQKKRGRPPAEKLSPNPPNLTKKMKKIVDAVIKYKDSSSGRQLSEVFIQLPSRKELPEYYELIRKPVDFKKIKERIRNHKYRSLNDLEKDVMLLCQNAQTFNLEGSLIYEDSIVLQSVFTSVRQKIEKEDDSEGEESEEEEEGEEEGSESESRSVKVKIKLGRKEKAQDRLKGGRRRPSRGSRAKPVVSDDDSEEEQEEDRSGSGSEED
T2 sequence (P51531 whole entry, the tested form may be a part): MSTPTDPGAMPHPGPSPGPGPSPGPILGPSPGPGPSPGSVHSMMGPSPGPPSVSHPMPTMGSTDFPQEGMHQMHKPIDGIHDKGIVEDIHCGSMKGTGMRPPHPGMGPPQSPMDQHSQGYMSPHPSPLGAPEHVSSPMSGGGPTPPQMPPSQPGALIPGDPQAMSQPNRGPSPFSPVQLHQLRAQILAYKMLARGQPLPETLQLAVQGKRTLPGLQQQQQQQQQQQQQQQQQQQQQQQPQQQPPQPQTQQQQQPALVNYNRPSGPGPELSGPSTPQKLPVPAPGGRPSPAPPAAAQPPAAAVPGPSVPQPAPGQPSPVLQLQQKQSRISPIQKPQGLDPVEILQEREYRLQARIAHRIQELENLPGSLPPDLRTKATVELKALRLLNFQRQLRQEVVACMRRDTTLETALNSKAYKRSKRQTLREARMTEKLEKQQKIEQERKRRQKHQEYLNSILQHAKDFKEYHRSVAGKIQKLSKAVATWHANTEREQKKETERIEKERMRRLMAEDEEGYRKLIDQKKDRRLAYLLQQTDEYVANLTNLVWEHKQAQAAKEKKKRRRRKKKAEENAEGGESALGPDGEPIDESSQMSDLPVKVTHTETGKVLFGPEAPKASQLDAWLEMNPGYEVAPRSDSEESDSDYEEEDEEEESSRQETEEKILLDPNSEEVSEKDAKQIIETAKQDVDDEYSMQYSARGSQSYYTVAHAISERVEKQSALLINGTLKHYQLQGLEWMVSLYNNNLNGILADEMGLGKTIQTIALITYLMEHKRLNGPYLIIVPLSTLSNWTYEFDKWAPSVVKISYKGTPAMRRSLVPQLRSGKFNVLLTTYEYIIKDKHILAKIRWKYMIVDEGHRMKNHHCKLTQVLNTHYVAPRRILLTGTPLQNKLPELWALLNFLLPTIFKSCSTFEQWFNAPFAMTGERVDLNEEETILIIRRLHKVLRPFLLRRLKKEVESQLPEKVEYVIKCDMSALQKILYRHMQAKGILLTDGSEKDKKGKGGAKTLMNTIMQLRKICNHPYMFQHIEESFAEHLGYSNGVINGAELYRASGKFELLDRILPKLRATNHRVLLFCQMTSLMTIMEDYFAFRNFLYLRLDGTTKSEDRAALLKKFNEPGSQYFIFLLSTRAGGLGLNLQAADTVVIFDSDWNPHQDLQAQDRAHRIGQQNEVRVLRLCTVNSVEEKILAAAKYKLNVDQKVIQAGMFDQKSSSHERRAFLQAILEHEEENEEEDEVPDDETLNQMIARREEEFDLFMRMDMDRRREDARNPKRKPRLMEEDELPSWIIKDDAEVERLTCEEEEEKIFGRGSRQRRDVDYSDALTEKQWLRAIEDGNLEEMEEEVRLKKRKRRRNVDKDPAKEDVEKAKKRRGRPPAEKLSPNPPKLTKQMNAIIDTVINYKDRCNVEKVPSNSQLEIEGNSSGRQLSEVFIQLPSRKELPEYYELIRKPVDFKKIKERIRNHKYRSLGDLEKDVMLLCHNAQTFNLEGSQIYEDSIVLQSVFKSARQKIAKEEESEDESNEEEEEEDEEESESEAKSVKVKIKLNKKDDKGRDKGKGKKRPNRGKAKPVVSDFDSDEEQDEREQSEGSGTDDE

Compound | DC50 [1] [nM] | inhibition at 1 µM ([1]; @ 1 μM) [%] | DC50 [2] [nM] | SMARCA2 % Degradation @ 1 μM ([2]; @ 1 μM) | inhibition at 1 µM ([1]; 1 μM) [%] | SMARCA2 % Degradation @ 1 μM ([2]; 1 μM)
Nc1nnc(-c2ccccc2O)cc1N1C2CCC1CN(c1ccnc(C#CCCNC(=O)c3cc4ncccn4n3)n1)C2 [Compound P-22, N-(4-(4-(8-(3-amino-6-(2-hydroxyphenyl)pyridazin-4-yl)-3,8-diazabicyclo[3.2.1]octan-3-yl)pyrimidin-2-yl)but-3-yn-1-yl)pyrazolo[1,5-a]pyrimidinc-2-carboxamide] | 500 to 5000 | 30 to 70 | 500 to 5000 | ++ (++=30-70%) | – | –
Nc1nnc(-c2ccccc2O)cc1N1CCCN(c2ccnc(C#CCNc3ncco3)n2)CC1 [Compound P-15, 2-(6-amino-5-(4-(2-(3-(oxazol-2-ylamino)prop-1-yn-1-yl)pyrimidin-4-yl)-1,4-diazepan-1-yl)pyridazin-3-yl)phenol] | 500 to 5000 | < 30 | 500 to 5000 | ++ (++=30-70%) | – | –
Nc1nnc(-c2ccccc2O)cc1N1CCCN(c2ccnc(C#CCN[C@H]3CCOC3)n2)CC1 [Compound P-275, 0-{5-[4-(2-{3-[(S)-tetrahydro-3-furylamino]-1-propynyl}-4-pyrimidinyl)-1,4-diazepan-1-yl]-6-amino-3-pyridaziny1}phenol] | 50 to 500 | 30 to 70 | 50 to 500 | +++ (+++=>70%) | – | –
CCN(CC)CC#Cc1nccc(N2CCN(c3cc(-c4ccccc4O)nnc3N)CC[C@H]2C)n1 [Compound P-202] | < 50 | 30 to 70 | < 50 | +++ (+++=>70%) | – | –
Nc1nnc(-c2ccccc2O)cc1N1CCCN(c2ccnc(C#CCNC(=O)OCC(F)(F)F)n2)CC1 [Compound P-339, 6-(o-hydroxyphenyl)-4-(4-{2-[3-(2,2,2-trifluoroethoxycarbonylamino)-1-propynyl]-4-pyrimidinyl}-1,4-diazepan-1-yl)-3-pyridazinamine] | 50 to 500 | > 70 | 50 to 500 | +++ (+++=>70%) | – | –
C[C@@H]1CCN(c2cc(-c3ccccc3O)nnc2N)CCN1c1ccnc(C#CCNC(=O)c2cccnc2)n1 [Compound P-240, N-[3-(4-{ (R)-4-[3-amino-6-(o-hydroxyphenyl)-4-pyridazinyl]-7-methyl-1,4-diazepan-1-yl}-2-pyrimidinyl)-2-propynyl]nicotinamide] | 500 to 5000 | < 30 | 500 to 5000 | ++ (++=30-70%) | – | –
CCNC(=O)NCC#Cc1nccc(N2CCCN(c3cc(-c4ccccc4O)nnc3N)CC2)n1 [Compound P-326, 0-[6-amino-5-(4-{2-[3-(3-ethylureido)-1-propynyl]-4-pyrimidinyl}-1,4-diazepan-1-yl)-3-pyridazinyl]phenol] | 500 to 5000 | < 30 | 500 to 5000 | ++ (++=30-70%) | – | –
Nc1nnc(-c2ccccc2O)cc1N1CCN(c2ccnc(C#CCN3CCCCC3)n2)CC1 [Compound P-280, 0-(6-amino-5-{4-[2-(3-piperidino-1-propynyl)-4-pyrimidinyl]-1-piperazinyl}-3-pyridazinyl)phenol] | < 50 | < 30 | < 50 | ++ (++=30-70%) | – | –
CC1(C)CN(c2ccnc(C#CCNC(=O)c3cc4ncccn4n3)n2)CCN1c1cc(-c2ccccc2O)nnc1N [Compound P-83, N-(3-(4-(4-(3-amino-6-(2-hydroxyphenyl)pyridazin-4-yl)-3,3-dimethylpiperazin-1-yl)pyrimidin-2-yl)prop-2-yn-1-yl)pyrazolo[1,5-a]pyrimidine-2-carboxamide] | 50 to 500 | < 30 | 500 to 5000 | + (+=<30%) | – | –
CN(C)CC#Cc1cc(N2C[C@@H]3CN(c4cc(-c5ccccc5O)nnc4N)C[C@@H]3C2)ccn1 [Compound P-389, 0-{5-[(1R,5S)-7-{2-[3-(dimethylamino)-1-propynyl]-4-pyridyl}-3,7-diazabicyclo[3.3.0]oct-3-yl]-6-amino-3-pyridazinyl} phenol] | < 50 | – | 50 to 500 | – | 30 to 70 | ++ (++=30-70%)
Nc1nnc(-c2ccccc2O)cc1N1CC2CCC(C1)N2c1ccnc(C#CCCNC(=O)c2cc3ncccn3n2)n1 [Compound P-96, N-(4-(4-(3-(3-amino-6-(2-hydroxyphenyl)pyridazin-4-yl)-3,8-diazabicyclo[3.2.1]octan-8-yl)pyrimidin-2-yl)but-3-yn-1-yl)pyrazolo[1,5-a]pyrimidine-2-carboxamide] | 50 to 500 | > 70 | 500 to 5000 | ++ (++=30-70%) | – | –
C[C@@H]1CCN(c2cc(-c3ccccc3O)nnc2N)CCN1c1ccnc(C#CCn2ccnc2)c1 [Compound P-428, 0-{5-[(R)-4-{2-[3-(1-imidazolyl)-1-propynyl]-4-pyridyl}-5-methyl-1,4-diazepan-1-yl]-6-amino-3-pyridazinyl}phenol] | 50 to 500 | – | 50 to 500 | – | > 70 | +++ (+++=>70%)
COCC#Cc1nccc(N2CCCN(c3cc(-c4ccccc4O)nnc3N)CC2)n1 [Compound P-342, 0-(6-amino-5-{4-[2-(3-mcthoxy-1-propynyl)-4-pyrimidinyl]-1,4-diazepan-1-yl}-3-pyridazinyl)phenol] | 50 to 500 | 30 to 70 | 50 to 500 | ++ (++=30-70%) | – | –
Cc1c(C(=O)NC/C=C/c2nccc(N3CCCN(c4cc(-c5ccccc5O)nnc4N)CC3)n2)nn(C)c1C [Compound P-111, (E)-N-(3-(4-(4-(3-amino-6-(2-hydroxyphenyl)pyridazin-4-yl)-1,4-diazepan-1-yl)pyrimidin-2-yl)allyl)-1,4,5-trimethyl-1H-pyrazole-3-carboxamide] | 50 to 500 | 30 to 70 | 50 to 500 | +++ (+++=>70%) | – | –
C[C@@H]1CCN(c2cc(-c3ccccc3O)nnc2N)CCN1c1ccnc(C#C[C@@H](C)O)n1 [Compound P-198, o-{5-[(R)-4-{2-[(R)-3-hydroxy-1-butynyl]-4-pyrimidinyl}-5-methyl-1,4-diazepan-1-yl]-6-amino-3-pyridazinyl}phenol] | 500 to 5000 | 30 to 70 | 50 to 500 | +++ (+++=>70%) | – | –
Cn1nc(C(=O)NCC#Cc2nccc(N3CCN(c4cc(-c5ccccc5O)nnc4N)CC3)n2)cc1C1CC1 [Compound P-6, N-[3-(4-{4-[3-amino-6-(2-hydroxyphenyl)pyridazin-4-yl]piperazin-1-y1}pyrimidin-2-yl)prop-2-yn-1-yl]-5-cyclopropyl-1-methyl-1H-pyrazole-3-carboxamide] | < 50 | 30 to 70 | 50 to 500 | ++ (++=30-70%) | – | –
C[C@@H]1CN(CC#Cc2nccc(N3CCCN(c4cc(-c5ccccc5O)nnc4N)CC3)n2)CCO1 [Compound P-313, 0-{5-[4-(2-{3-[(R)-2-methyl-4-morpholinyl]-1-propynyl}-4-pyrimidinyl)-1,4-diazepan-1-yl]-6-amino-3-pyridaziny1}phenol] | 500 to 5000 | < 30 | 50 to 500 | ++ (++=30-70%) | – | –
Nc1nnc(-c2ccccc2O)cc1N1CCN(c2ccnc(C#CCNC(=O)c3cnn4cccnc34)n2)CC1 [Compound P-71, N-(3-(4-(4-(3-amino-6-(2-hydroxyphenyl)pyridazin-4-yl)piperazin-1-yl)pyrimidin-2-yl)prop-2-yn-1-yl)pyrazolo[1,5-a]pyrimidine-3-carboxamide] | 50 to 500 | 30 to 70 | 50 to 500 | ++ (++=30-70%) | – | –
CN1CCCC1C#Cc1nccc(N2CCCN(c3cc(-c4ccccc4O)nnc3N)CC2)n1 (stereo not shown) [Compound P-350, 0-[6-amino-5-(4-{2-[2-(1-methyl-2-pyrrolidinyl)cthynyl]-4-pyrimidinyl}-1,4-diazepan-1-yl)-3-pyridazinyl]phenol] | 50 to 500 | > 70 | 50 to 500 | +++ (+++=>70%) | – | –
CC[C@H](C)NCC#Cc1nccc(N2CCCN(c3cc(-c4ccccc4O)nnc3N)CC2)n1 [Compound P-257, o-{5-[4-(2-{3-[(S)-1-methylpropylamino]-1-propynyl}-4-pyrimidinyl)-1,4-diazepan-1-yl]-6-amino-3-pyridazinyl}phenol] | 50 to 500 | 30 to 70 | 50 to 500 | +++ (+++=>70%) | – | –
Nc1nnc(-c2ccccc2O)cc1N1CCN(c2ccnc(C#CCNC(=O)c3cc4ccc(F)cc4o3)n2)CC1 [Compound P-52, N-(3-(4-(4-(3-amino-6-(2-hydroxyphenyl)pyridazin-4-yl)piperazin-1-yl)pyrimidin-2-yl)prop-2-yn-1-yl)-6-fluorobenzofuran-2-carboxamide] | 50 to 500 | 30 to 70 | 50 to 500 | ++ (++=30-70%) | – | –
Cn1ccc(NCC#Cc2nccc(N3CC4CCC(C3)N4c3cc(-c4ccccc4O)nnc3N)n2)n1 [Compound P-130, 2-(6-amino-5-(3-(2-(3-((1-methyl-1H-pyrazol-3-yl)amino)prop-1-yn-1-yl)pyrimidin-4-yl)-3,8-diazabicyclo[3.2.1]octan-8-yl)pyridazin-3-yl)phenol] | 50 to 500 | 30 to 70 | 50 to 500 | +++ (+++=>70%) | – | –

Reference: patent US20260265238A1, “COMPOUNDS AND PHARMACEUTICAL COMPOSITIONS THAT DEGRADE SWI/SNF-RELATED MATRIX-ASSOCIATED ACTIN-DEPENDENT REGULATOR OF CHROMATIN SUBFAMILY A” (Plexium, Inc., priority 2023, published 2026)
